Assays:
Format in all cases: cell-based, human
[1] = test system: 4 kinds of ARaiv1 clones (ARaiv1, ARaiv1Δ1, ARaiv1Δ2, ARaiv1Δ3); assay: reporter gene assay of ARaiv1 clones with pGL3-2×PSA reporter in COS7 cell (luciferase); conditions: bicalutamide added 24 hr after cotransfection, luciferase assay 24 hr later
Experimental: The above-mentioned 4 kinds of ARaiv1 clones (ARaiv1 and ARaiv1Δ1, ARaiv1Δ2 and ARaiv1Δ3) were respectively subcloned to a pcDNA3.1 expression vector, and the transcription activity was examined by a reporter gene assay. The ARaiv1 clone expression vector and pGL3-2×PSA reporter were cotransfected into COS7 cell. After 24 hr, DHT or an AR antagonist bicalutamide, was added, and 24 hr later, a luciferase assay was performed.

JDCaP-hr cells = assay: JDCaP-hr cell proliferation after siRNA transfection; conditions: cultured for 5 days; for growth promotion due to DHT: DHT added; for cell proliferation (growth inhibition): androgen-free conditions
Experimental: siRNA targeting AR-specific exon 8 (siAR), siRNA targeting ARaiv1-specific exon 4b (siARaiv1) or siRNA targeting exon 1 common to the both (siDual) was transfected into JDCaP-hr cells, the cells were cultured for 5 days in an androgen-free medium added with DHT or DMSO, and the cell proliferation was measured (FIG. 7). […] On the other hand, the growth inhibitory effect was partial in the siAR transfection group.

full-length AR = assay: Western blotting of AR production after siRNA transfection in JDCaP-hr cells; conditions: 48 hr from siRNA transfection
Excerpt: (§1) An siRNA targeting exon 4b specific to ARaiv1 (siARaiv1: 5′-[…]-3′ (SEQ ID NO: 29)) was designed and synthesized by Qiagen. In addition, an siRNA targeting exon 8 specific to AR (siAR: Hs_AR—6_HP Validated siRNA: 5′-[…]-3′ (SEQ ID NO: 30)) and an siRNA cocktail containing siRNA targeting exon 1 common to AR and ARaiv1 (siDual: OTP SMART pool, L-003400-00-0005) were purchased from Qiagen and Dharmacon, respectively. siAR, siARaiv1 or siDual was transfected into JDCaP-hr cells. RNA was extracted from the cells after 48 hr from the siRNA transfection, and the expression level of the target gene was analyzed by quantitative RT-PCR. As a result, it was confirmed that gene knockdown by each siRNA was carried out sufficiently efficiently (FIG. 6a). To examine changes in the C-terminally defective-type AR protein production, which were caused by the ARaiv1 knockdown, an extract was prepared from the cells after 48 hr from the siRNA transfection, and the production of AR and β-actin was examined by Western blotting. The production of only full-length AR in the siAR transfection group, only C-terminally defective-type AR in the siARaiv1 transfection group, and the both in the siDual transfection group decreased (FIG. 6b).

22Rv1 cells = assay: colony formation assay of 22Rv1 cells after shRNA expression vector transfection; conditions: androgen-free conditions
Excerpt: Expression plasmids of shRNA targeting AR-specific exon 8 (shAR), shRNA targeting ARaiv1-specific exon 4b (shARaiv1) and shRNA targeting exon 1 common to the both (shDual) were constructed using siSTRIKE U6 hairpin cloning system (Promega). The target sequences of shAR and siARaiv1 were the same as those of the above-mentioned siAR and siARaiv1. As the target sequence of shRNA specific to exon 1 (shDual), the sequence of exon 1-specific siRNA (5′-[…]-3′ (SEQ ID NO: 31)) contained in siDual was used.
The expression vector of shAR, siARaiv1 or shDual was transfected into 22Rv1 cells, and a colony formation assay was carried out under androgen-free conditions. In the siARaiv1 transfection group, the number of colonies decreased to 19% of that of the non-specific shRNA (shNS) transfection group (NS group). In the shDual transfection group, the number of colonies decreased to 4% of that of the NS group, and remarkable suppression of colony formation was observed. On the other hand, the colony formation ability of the shAR transfection group was 54% of the NS group, and the decrease was weaker as compared to the ARaiv1 knockdown group.

[2] = test system: C-terminally defective-type AR; assay: Western blotting of AR production after siRNA transfection in JDCaP-hr cells; conditions: 48 hr from siRNA transfection
Excerpt: as §1

Compound	transcription activity of 4 kinds of ARaiv1 clones (reporter activity) [1]	growth promotion due to DHT (JDCaP-hr cells)	cell proliferation (growth inhibition) (JDCaP-hr cells)	production of full-length AR (full-length AR)	number of colonies relative to non-specific shRNA (NS) group (22Rv1 cells)	production of C-terminally defective-type AR [2]
CC(O)(CS(=O)(=O)c1ccc(F)cc1)C(=O)Nc1ccc(C#N)c(C(F)(F)F)c1 (centres unmarked) [bicalutamide]	not inhibited	–	–	–	–	–
siAR: siRNA targeting exon 8 specific to AR, Hs_AR—6_HP Validated siRNA: 5′-ggaacucgaucguaucauu-3′ (SEQ ID NO: 30) (GGAACUCGAUCGUAUCAUU; chemistry not given here)	–	remarkably inhibited	partial	decreased	–	–
siARaiv1: siRNA targeting exon 4b specific to ARaiv1: 5′-gattgttcttgatcacata-3′ (SEQ ID NO: 29) (GATTGTTCTTGATCACATA; listed as DNA, chemistry not given here)	–	growth promotion due to DHT was observed	remarkable growth inhibition	–	19%	decreased
